Columns and labels:
[1] = biological target: T1, human α5β3γ2L GABAA receptors (Homo sapiens, UniProt P28472+P31644); test: Whole-cell voltage-clamp electrophysiology, HEK-293 cells expressing α5β3γ2L GABAA receptors; type: cell-based; conditions: for GAMSA effect: α5β3γ2L, 1 μM GAMSA, 0.3 μM GABA, AUC
T1 construct: expressed in transfected cells; host or cells: HEK-293, permanently transfected
Experimental: For electrophysiology measurements the Dynaflow® system with the Resolve chip was used (Cellectricon, Göteborg, Sweden). HEK-293 cells were permanently transfected with vectors including the human CMV promoter for constitutive expression of the human α5, β3, and γ2L GABAA receptor subunits (α5β3γ2L) or the human α1, β2, and γ2L GABAA receptor subunits (α1β2γ2L). The cell lines used were selected for good reactivity to GABA and to THDOC. Before measurements cells were incubated for 15 min at 37° C. in 95% air+5% CO2 in extracellular solution (EC) containing the following: 137 mM NaCl, 5.0 mM KCl, 1.0 mM CaCl2, 1.2 mM MgCl2, 10 mM HEPES, and 10 mM glucose, 0.1% DMSO pH 7.4. Thereafter, detached cells were added to the EC solution in the Dynaflow chip bath.
Whole-cell voltage-clamp recordings were made at room temperature (21-23° C., −17 mV with compensation for liquid junction potential as in Haage et al., 2002; Neher, 1992). Command pulses were generate and data collected by PClamp 9.0 software, DigiData 1322A converter, and AxonPatch 200B (Axon Instruments, Foster City, Calif.). Patch electrodes (2-6 MΩ) were filled with intracellular solution (IC) including: 140 mM Cs-gluconate, 3.0 mM NaCl, 1.2 mM MgCl2, 10 mM HEPES, 1.0 mM EGTA, 2 mM Mg-ATP, 0.1% DMSO, pH 7.2.
THDOC and 3α-ethynyl-3β-hydroxyandrostan-17-one oxime were dissolved in dimethyl sulfoxide (DMSO) and thereafter diluted with EC solution to include 0.1% DMSO.
Different protocols were used for different electrophysiology measurements. As α1β2γ2L-GABAA receptors in vivo are present within the synapse a condition resembling that situation, a short application (40 ms) of a high GABA concentration (30 μM), was used. Contrary, α5β3γ2L-GABAA receptors are present extrasynaptically, thus the conditions used were long exposures (6 s) to a low GABA concentration (0.3 μM). The EC75 concentration of THDOC was used, i.e. 100 nM with studies of α1β2γ2L and 200 nM when α5β3γ2L expressing cells were evaluated. With both cell types a pre-exposure with THDOC or THDOC plus 3α-ethynyl-3β-hydroxyandrostan-17-one oxime was used before application of GABA.
Steroid effects in presence of GABA were normalized to controls in order to avoid the effects of inter- and intracellular variation in the measured parameters, each cell was used as its own control and the area under the curve (AUC) was analyzed.

PCS rats [2] = test: Radial maze test, PCS rats (Example 10); type: in vivo, rat
Experimental: (§1) Male Wistar rats (220-240 g) were anesthetized with isoflurane, and an end-to side porta-caval anastomosis was performed as described by Lee and Fisher (Surgery, 1961, 50, 668-672).
(§2) Rats that were subjected to the porta-caval anastomosis procedure are herein referred to as “PCS rats”.
(§3) 3α-ethynyl-3β-hydroxyandrostan-17-one oxime in sesame oil was administered by subcutaneous injections in the back of the rats, once daily. Two different sets of experiments were performed in hyperammonemic rats. In the first set four groups of rats were used: 1) control rats injected with vehicle; 2) hyperammonemic rats injected with vehicle; 3) control rats injected with 20 mg/Kg of 3α-ethynyl-3β-hydroxyandrostan-17-one oxime and 4) hyperammonemic rats injected with 20 mg/Kg of 3α-ethynyl-3β-hydroxyandrostan-17-one oxime.
For the experiments using PCS rats, the following groups of rats were used: 1) Sham rats injected with vehicle; 2) PCS rats injected with vehicle; 3-4) PCS rats injected with 0.7 or 2.5 mg/Kg of 3α-ethynyl-3β-hydroxyandrostan-17-one oxime. […]
The apparatus was composed of a central area that gave access to eight equally-sized arms. […] The number of working memory errors (visits to arms already visited in the same trial) were recorded and expressed as working errors.

PCS rats [3] = test: Circadian rhythms of spontaneous locomotor activity (actimeter), PCS rats (Example 11); type: in vivo, rat
Experimental: as §1, §2, §3
(§4) For the experiments using PCS rats, the following groups of rats were used: 1) Sham rats injected with vehicle; 2) PCS rats injected with vehicle; 3-4) PCS rats injected with 0.7 or 2.5 mg/Kg of 3α-ethynyl-3β-hydroxyandrostan-17-one oxime. The number of rats used in each experiment is either shown in the corresponding Figure or given in the description of the corresponding Figure.
Motor activity was measured using an actimeter (Med Associates, S t. Albans, Vt.). Rats were placed individually in an open-field activity chamber (43×43×31 cm), and motor activity was recorded continuously for 14 days in conditions of light-dark (L:D), 12 h:12 h. Data were recorded at intervals of 5 minutes. Motor activity was detected by arrays of infrared motion detectors, placed in three directions, x, y and z. One ambulatory count is recorded by the apparatus when the rat interrupts three consecutive infrared detectors, in x or y position. A vertical count is recorded when rat interrupts infrared detectors in z position. The software allows measuring different parameter of motor activity, such as ambulatory counts or vertical counts (Ahabrach et al. Journal of Neuroscience Research, 2010, 88, 1605-14).

[4] = Exposure in plasma and brain tissue, PCS rats (Example 13); type: in vivo, rat; conditions: for Total concentration in plasma: at the time for behavioral testing
Experimental: as §1, §2, §3, §4
At the end of the treatment period plasma was collected from the tail vein, and after sacrifice by decapitation brains were collected and immediately frozen on dry ice. For analysis of 3α-ethynyl-3β-hydroxyandrostan-17-one oxime exposure, brain tissue was homogenized with a 1:4 ratio of tissue: PBS (pH 7.4) and then extracted with a 2-fold volume of methanol:acetonitrile (1:1), while plasma was protein-precipitated with a 3-fold volume with acetonitrile. Analyses were performed by Waters ACQUITY UPLC+Waters XEVO-TQS triple quadrupole mass spectrometer (Admescope Oy, Oulu, Finland). For calculations of the amount of free 3α-ethynyl-3β-hydroxyandrostan-17-one oxime exposure in the brain the fraction unbound (Fb) in brain homogenates were determined by dialysis, Fub in HA=[…] and Fub in PCS=1.43% (Admescope Oy, Oulu, Finland).

T1 sequence (P31644 32-462): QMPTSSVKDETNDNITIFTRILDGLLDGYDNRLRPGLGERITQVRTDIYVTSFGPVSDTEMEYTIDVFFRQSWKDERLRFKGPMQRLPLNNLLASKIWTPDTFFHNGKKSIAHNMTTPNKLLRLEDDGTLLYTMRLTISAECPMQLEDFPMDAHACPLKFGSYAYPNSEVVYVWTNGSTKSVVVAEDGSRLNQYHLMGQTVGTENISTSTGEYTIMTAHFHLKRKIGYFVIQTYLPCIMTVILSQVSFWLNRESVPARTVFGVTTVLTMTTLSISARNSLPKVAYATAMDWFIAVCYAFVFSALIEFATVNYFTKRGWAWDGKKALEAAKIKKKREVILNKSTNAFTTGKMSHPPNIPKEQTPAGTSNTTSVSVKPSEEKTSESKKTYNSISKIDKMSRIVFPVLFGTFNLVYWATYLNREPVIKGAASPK
T1 sequence (P28472 26-473): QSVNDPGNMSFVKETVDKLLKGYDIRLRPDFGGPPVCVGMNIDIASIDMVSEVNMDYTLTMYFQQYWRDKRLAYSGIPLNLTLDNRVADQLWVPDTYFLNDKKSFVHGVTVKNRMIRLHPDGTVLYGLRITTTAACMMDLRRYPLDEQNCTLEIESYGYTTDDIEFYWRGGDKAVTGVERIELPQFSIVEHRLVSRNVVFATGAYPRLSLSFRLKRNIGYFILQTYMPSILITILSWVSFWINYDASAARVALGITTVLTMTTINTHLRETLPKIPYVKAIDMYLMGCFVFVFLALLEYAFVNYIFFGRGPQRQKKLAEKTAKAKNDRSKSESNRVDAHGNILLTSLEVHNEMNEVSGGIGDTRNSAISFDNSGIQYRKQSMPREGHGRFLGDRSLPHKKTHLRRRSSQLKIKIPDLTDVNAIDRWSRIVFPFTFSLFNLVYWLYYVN
T1 sequence (P18507 40-475 partner): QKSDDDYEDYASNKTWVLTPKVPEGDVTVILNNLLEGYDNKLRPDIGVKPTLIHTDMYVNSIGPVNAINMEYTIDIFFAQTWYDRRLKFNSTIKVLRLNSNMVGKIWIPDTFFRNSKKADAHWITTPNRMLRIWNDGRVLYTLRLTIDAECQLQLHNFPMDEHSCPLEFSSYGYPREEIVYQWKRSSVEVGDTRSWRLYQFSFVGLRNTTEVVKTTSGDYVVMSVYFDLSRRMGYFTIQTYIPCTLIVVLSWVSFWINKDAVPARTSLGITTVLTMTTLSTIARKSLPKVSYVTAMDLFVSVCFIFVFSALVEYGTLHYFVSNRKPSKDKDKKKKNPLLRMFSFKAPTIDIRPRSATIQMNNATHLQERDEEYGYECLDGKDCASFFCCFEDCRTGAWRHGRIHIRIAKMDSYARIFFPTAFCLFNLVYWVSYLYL

What does the source list for `C#C[C@]1(O)CC[C@@]2(C)C(CC[C@@H]3[C@@H]2CC[C@]2(C)/C(=N\O)CC[C@@H]32)C1` (stereo partly drawn) [3α-ethynyl-3β-hydroxyandrostan-17-one oxime]?
inhibition at 1 µM ([1]; HEK293, read-out: Inhibition of the THDOC enhancement of GABA): 49 ± 4.7%; GAMSA effect ([1]; 200 nM THDOC): −49 ± 4.7%; GAMSA effect ([1]; no THDOC (GABA sole activator)): −3.8±1.5%; GAMSA effect ([1]; no THDOC (GABA sole activator), listed as GAMSA): −3.8 ± 1.5%; Number of working errors in days 1-2, radial maze (PCS rats [2]; 0.7 mg/Kg): 23±2 errors; Number of working errors in days 1-2, radial maze (PCS rats [2]; 2.5 mg/Kg): 11±1 errors; Motor activity (ambulatory counts) during the night (PCS rats [3]; 0.7 mg/kg): 2652±275 counts; Night/day ratio of ambulatory activity (PCS rats [3]; 0.7 mg/kg): 1.7±0.2; Night/day ratio of vertical activity (PCS rats [3]; 0.7 mg/kg): 2.1±0.4; Vertical activity during the day (PCS rats [3]; 0.7 mg/kg): 339±47 counts; Vertical activity during the night (PCS rats [3]; 0.7 mg/kg): 664±121 counts; Motor activity (ambulatory counts) during the night (PCS rats [3]; 2.5 mg/kg): 2235±170 counts; Night/day ratio of ambulatory activity (PCS rats [3]; 2.5 mg/kg): 1.6±0.3; Night/day ratio of vertical activity (PCS rats [3]; 2.5 mg/kg): 1.9±0.6; Vertical activity during the day (PCS rats [3]; 2.5 mg/kg): 424±44 counts; Vertical activity during the night (PCS rats [3]; 2.5 mg/kg): 695±185 counts; Unbound concentration in the brain ([4]; 0.7 mg/kg/day s.c.): 6.18 ± 0.97 nmol/kg; Total concentration in plasma ([4]; 0.7 mg/kg/day s.c.): 0.48 ± 0.09 µM; Unbound concentration in the brain ([4]; 2.5 mg/kg/day s.c.): 17 ± 2 nmol/kg; Total concentration in plasma ([4]; 2.5 mg/kg/day s.c.): 1.64 ± 0.30 µM

Source: patent US10342804B2, “Steroid compound for use in the treatment of hepatic encephalopathy” (Umecrine Cognition AB, priority 2014, dated 2019)
